Measured values published in patent US20260275403A1, “METHOD FOR DETECTION OF NUCLEIC ACID END(S)” (INTODNA SPÓLKA AKCYJNA, priority 2023, published 2026).
Entries after “also recorded” stand apart in the source; their conditions may differ.

Key:
[1] = tested on: NCI-H661 (i.e. HR proficient cell line); assay: dSTRIDE-RPA, RPA70-associated double-strand DNA breaks; format: cell-based, human; conditions: NCI-H661, 5 μM or 50 μM etoposide, 48h
Protocol: (§1) • 1. TdT reaction at 37° C. with BrdU and TdT enzyme • 2. (optional) rinse with PBS
(§2) • 1. […] (optional) PBS rinse • 4. […] (optional) PBS rinse
(§3) • 1. PLA probes binding reaction at 37° C. (Navinci PLA reagents and standard protocol) • 2. Reaction A at 37° C. • 3. Reaction B at 37° C. • 4. Reaction C at 37° C.
(§4) NCI-H1693 and NCI-H661 were purchased from ATCC cell culture collection (18.05.2022). The detailed cell culture description is listed on Table 16. […] The master bank collection was prepared form #1 passage.
(§5) (also included passage number).
(§6) The labelling was performed according to protocols described in Examples 2 or 3.

[2] = tested on: NCI-H1693 (i.e. HR deficient) cell line; assay: as above; format: cell-based, human; conditions: 48h
Protocol: as §1, §2, §3, §4, §5, §6

[3] = tested on: NCI-H1693 (i.e. HR deficient cell line); assay: dSTRIDE-RAD51 (dSTRIDE-HR), RAD51-associated double-strand DNA breaks; format: cell-based, human; conditions: NCI-H1693, 5 μM or 50 μM etoposide, 48h
Protocol: (§7) • 1. […] (i.e. room temperature) • 2. […] (optional) rinse with PBS
as §1
(§8) • 6. […] 7. […] (optional) PBS rinse • 9. […] (optional) PBS rinse
as §3, §4, §5, §6

[4] = tested on: NCI-H661 (i.e. HR proficient cell line); assay: as above; format: cell-based, human; conditions: 48h; for number of dSTRIDE-HR (RAD51) foci: NCI-H661, 5 μM or 50 μM etoposide
Protocol: as §7, §1, §8, §3, §4, §5, §6

[5] = tested on: NCI-H661 (i.e. HR proficient cell line); assay: dSTRIDE, double-strand DNA breaks; format: cell-based, human; conditions: 48h; for number of double-strand DNA breaks detected by dSTRIDE: NCI-H661, 5 μM or 50 μM etoposide
Protocol: as §4, §5, §6

[6] = tested on: NCI-H1693 (i.e. HR deficient) cell line; assay: dSTRIDE, double-strand DNA breaks; format: cell-based, human; conditions: 48h; for number of double-strand DNA breaks detected by dSTRIDE: NCI-H1693, 5 μM or 50 μM etoposide
Protocol: as §4, §5, §6

human cells U2OS WT = tested on: human cells U2OS WT
Protocol: (§9) • 1. Proteinase K treatment of the biological material for 30 seconds (at a concentration of about 7 μg/mL (1:350 dilution of proteinase K stock concentration of 2.5 mg/mL), solution in PBS) at about 22° C. (i.e. room temperature) • 2. (optional) incubation with 1 mM PMSF in PBS for 5 minutes at about 22° C. • 3. (optional) rinse with PBS
(§10) • 5. Polymerase I reaction at 37° C. with polymerase I enzyme, […], biotin-16-dUTP, biotin-16-dCTP, and dGTP • 6. (optional) rinse with buffer
(§11) • 1. (optional) 60 min incubation in Navinci Blocking Buffer at 37° C. • 2. 60 min incubation in 1:100 rabbit monoclonal anti-PMS2 (or PMS1 or MLH1) antibody in Navinci Primary Antibody Diluent at about 22° C. • 3. (optional) PBS rinse • 4. 60 min incubation in 1:100 mouse monoclonal anti-biotin antibody in Navinci Primary Antibody Diluent at about 22° C. • 5. (optional) PBS rinse
as §3
In vehicle conditions the operation medium was changed to a fresh one with supplementation of 0.1% sterile DMSO and left to rest for the incubation time.

HAP1 cells (WT and KO) = tested on: HAP1 cells (WT and KO)
Protocol: as §9, §10, §11, §3
After 24 h of rest the operation medium was changed to a fresh one with supplementation of 1 μM or 10 μM 6-Tioguanine (6TG) in DMSO and left to rest for the incubation time 48h (final DMSO concentration was 0.1% in medium in each experimental condition). […]

HAP1 parental cells = conditions: 6TG at a higher concentration
Protocol: as §9, §10, §11
(§12) • 1. PLA probes binding reaction at 37° C. (Navinci PLA reagents and standard protocol) • 2. Reaction A at 37° C. • 3. Reaction B at 37° C. • 4. Reaction C at 37° C. […]
(§13) When cell confluence reached 90%, cells were washed with sterile PBS (without Ca^2+ and Mg^2+) and incubated for 2 min with 2 mL of 0.25% trypsin solution with EDTA. Trypsin was inactivated with the culture medium containing FBS and the collected cells were counted in the Burker chamber. […]

HAP1 PMS2 KO cells = conditions: 6TG 1 uM 48 h treatment
Protocol: as §9, §10, §11, §12, §13

[7] = NCI-H1693 versus NCI-H661, 50 uM etoposide

## COc1cc([C@@H]2c3cc4c(cc3[C@@H](O[C@@H]3O[C@@H]5CO[C@@H](C)O[C@H]5[C@H](O)[C@H]3O)[C@H]3COC(=O)[C@H]23)OCO4)cc(OC)c1O [etoposide, Etoposide]
[1]
  number of RPA-associated double-strand DNA breaks detected by dSTRIDE-RPA: dose-dependent increase in the number of dSTRIDE-RPA foci; also recorded: dose-dependent response
[2]; NCI-H1693, 5 μM or 50 μM etoposide
  number of RPA-associated double-strand DNA breaks detected by dSTRIDE-RPA: dose-dependent increase in the number of dSTRIDE-RPA foci
[2]; [7]
  dSTRIDE-RPA foci, cell line comparison: more dSTRIDE-RPA foci detected in HR deficient cell line
[3]
  number of RAD51-associated double-strand DNA breaks detected by dSTRIDE-RAD51: no response
[3]; listed as Etoposide
  number of RAD51-associated double-strand DNA breaks detected by dSTRIDE-RAD51: did not results in a detectable increase; also recorded: no response
[4]
  number of dSTRIDE-HR (RAD51) foci: dose-dependent increase; also recorded: dose-dependent response
[4]; listed as Etoposide
  number of dSTRIDE-HR (RAD51) foci: increase in the number of visible fluorescence foci
[4]; NCI-H661, 50 uM etoposide
  number of RAD51-associated double-strand DNA breaks detected by dSTRIDE-RAD51: significant increase
[5]
  number of double-strand DNA breaks detected by dSTRIDE: dose-dependent increase in the number of DSBs; also recorded: dose-dependent response
[5]; listed as Etoposide
  number of double-strand DNA breaks detected by dSTRIDE: efficiently induces DSBs
[5]; NCI-H661, 5 um etoposide
  increase in DSBs (dSTRIDE), cell line comparison: comparable in both cell lines
[6]
  number of double-strand DNA breaks detected by dSTRIDE: increase in the number of double-strand DNA breaks; also recorded: dose-dependent increase in the number of DSBs; also recorded: dose-dependent formation of double-strand DNA breaks
[6]; listed as Etoposide
  number of double-strand DNA breaks detected by dSTRIDE: efficiently induces DSBs
[6]; NCI-H1693, 5 um etoposide
  increase in DSBs (dSTRIDE), cell line comparison: comparable in both cell lines
[6]; [7]
  number of DSBs (dSTRIDE), cell line comparison: more profound increase; also recorded: more DSBs are induced in HR deficient than in HR proficient cell lines

## Nc1nc2[nH]cnc2c(=S)[nH]1 [6TG, 6-Tioguanine]
Human cells U2OS WT; Sample 4, 6TG treated U2OS WT cells, 48 h (6TG 100nM per Table 3), antigen retrieval 1 (proteinase K 2 min)
  maximum number of sSTRIDE MMR foci per nucleus: 3 foci per nucleus
Human cells U2OS WT; U2OS WT, 6TG 48 h, antigen retrieval 1 (proteinase K 2 min)
  response in number of foci detected after 6TG treatment (quantitative image analysis): no response
Human cells U2OS WT; U2OS WT, 48 h 6TG in different concentration, Abcam antibody, antigen retrieval method v2
  number of foci in the nucleus after treatment: did not significantly increase number of foci
Human cells U2OS WT; U2OS WT, Abcam antibody, 6TG 250 nM-10 μM, 24 h or 48 h, antigen retrieval method 2
  sSTRIDE MMR readouts level of 6TG treated cells versus non-treated samples: lower than in the non-treated samples
HAP1 cells (WT and KO); HAP1 PMS2 WT and KO, 6TG treatment
  sSTRIDE-MMR (MLH1) readouts: increase in sSTRIDE-MMR (MLH1) readouts
HAP1 cells (WT and KO); after treatment with 6TG
  PMS1 at SSBs (sSTRIDE-PMS1): engaged in MMR processes
HAP1 parental cells
  level of sSTRIDE-MMR signals: elevated level of sSTRIDE-MMR signals
HAP1 PMS2 KO cells
  number of sSTRIDE-MMR fluorescence foci: does not result in a significant increase
